For this test, the system named is BACE1. The test is described as follows: Screening for ALT-59 derivatives with BACE1 protein levels as indicator, U-87 MG cells. The conditions noted are these: 2 days, concentrations as indicated in FIGS. 15-17. The format is cell-based. As to the method:
Additional experiments were performed to screen for compounds with higher potency and the ability to penetrate blood brain barrier using BACE1 protein levels as an indicator. U-87 MG cells were cultured as described previously and treated for 2 days with compounds at concentrations as indicated in FIGS. 15-17. Cells were then subjected to Western blotting analysis using anti-BACE1 and anti-beta-actin antibodies.
For `COc1cc(C2Nc3ccc4ccccc4c3C3=C2C(=O)CC(C)(C)C3)cc(Br)c1OC` (centres unmarked) [ALT-208, 5-(3-bromo-4,5-dimethoxyphenyl)-2,2-dimethyl-2,3,5,6-tetrahydrobenzo[a]phenanthridin-4(1H)-one], the BACE1 protein expression result is listed as “capable of lowering BACE1 expression”.
With `CC1(C)CC(=O)C2=C(C1)c1c(ccc3ccccc13)NC2c1ccc(C(F)(F)F)cc1` (centres unmarked) [ALT-212, 2,2-dimethyl-5-(4-(trifluoromethyl)phenyl)-2,3,5,6-tetrahydrobenzo[a]phenanthridin-4(1H)-one], the BACE1 protein expression entry is given as “capable of lowering BACE1 expression”.
The same measure for `CCOc1ccc(C2Nc3ccc4ccccc4c3C3=C2C(=O)CC(C)(C)C3)cc1OC` (centres unmarked) [ALT-207, 5-(4-ethoxy-3-methoxyphenyl)-2,2-dimethyl-2,3,5,6-tetrahydrobenzo[a]phenanthridin-4(1H)-one]: “capable of lowering BACE1 expression”; for `CC1(C)CC(=O)C2=C(C1)c1c(ccc3ccccc13)NC2c1cccc(C(F)(F)F)c1` (centres unmarked) [ALT-215, 2,2-dimethyl-5-(3-(trifluoromethyl)phenyl)-2,3,5,6-tetrahydrobenzo[a]phenanthridin-4(1H)-one]: “capable of lowering BACE1 expression”.
As for `C#CCOc1c(I)cc(C2Nc3ccc4ccccc4c3C3=C2C(=O)CC(C)(C)C3)cc1OC` (centres unmarked) [ALT-402, 5-(3-iodo-5-methoxy-4-(prop-2-yn-1-yloxy)phenyl)-2,2-dimethyl-2,3,5,6-tetrahydrobenzo[a]phenanthridin-4(1H)-one], the entry is “capable of lowering BACE1 expression”; as for `Cc1ccc(C2Nc3c(ccc4ccccc34)C3=C2C(=O)CC(C)(C)C3)cc1` (centres unmarked) [ALT-333, 9,9-dimethyl-6-(p-tolyl)-6,8,9,10-tetrahydrobenzo[c]phenanthridin-7(5H)-one], “capable of lowering BACE1 expression”.
For `CC1CCN(c2ccc(C3Nc4ccc5ccccc5c4C4=C3C(=O)CC(C)(C)C4)cc2[N+](=O)[O-])CC1` (centres unmarked) [ALT-322, 2,2-dimethyl-5-(4-(4-methylpiperidin-1-yl)-3-nitrophenyl)-2,3,5,6-tetrahydrobenzo[a]phenanthridin-4(1H)-one], the BACE1 protein expression entry is on record as “capable of lowering BACE1 expression”.
Take `CC1(C)CC(=O)C2=C(C1)c1c(ccc3ccccc13)NC2c1cccc(OC(F)(F)C(F)F)c1` (centres unmarked) [ALT-110, 2,2-dimethyl-5-(3-(1,1,2,2-tetrafluoroethoxy)phenyl)-2,3,5,6-tetrahydrobenzo[a]phenanthridin-4(1H)-one]: the BACE1 protein expression entry is given as “capable of lowering BACE1 expression”.
Regarding `CCN(CC)c1ccc(C2Nc3ccc4ncccc4c3C3=C2C(=O)CC(C)(C)C3)cc1` (centres unmarked) [ALT-404, 8-(4-(diethylamino)phenyl)-11,11-dimethyl-8,10,11,12-tetrahydrobenzo[a][4,7]phenanthrolin-9(7H)-one], the BACE1 protein expression entry is recorded as “capable of lowering BACE1 expression”.
As for `CC1(C)CC(=O)C2=C(C1)c1cc3ccccc3cc1NC2c1ccc2c(c1)OCO2` (centres unmarked) [ALT-205, 5-(benzo[d][1,3]dioxol-5-yl)-2,2-dimethyl-2,3,5,6-tetrahydrobenzo[b]phenanthridin-4(1H)-one], the entry is “capable of lowering BACE1 expression”; as for `CC(C)c1ccc(C2Nc3ccc4ccccc4c3C3=C2C(=O)CC(C)(C)C3)cc1` (centres unmarked) [ALT-309, 5-(4-isopropylphenyl)-2,2-dimethyl-2,3,5,6-tetrahydrobenzo[a]phenanthridin-4(1H)-one], “capable of lowering BACE1 expression”.
Regarding `CC1(C)CC(=O)C2=C(C1)c1c(ccc3ccccc13)NC2c1ccc(Cl)c(Cl)c1` (centres unmarked) [ALT-204, 5-(3,4-dichlorophenyl)-2,2-dimethyl-2,3,5,6-tetrahydrobenzo[a]phenanthridin-4(1H)-one], the BACE1 protein expression entry is recorded as “capable of lowering BACE1 expression”.
For the compound `COc1ccc(C2Nc3c(ccc4ccccc34)C3=C2C(=O)CCC3)cc1Br` (centres unmarked) [ALT-108, 6-(3-bromo-4-methoxyphenyl)-6,8,9,10-tetrahydrobenzo[c]phenanthridin-7(5H)-one], the BACE1 protein expression result is reported as “capable of lowering BACE1 expression”.
As for `Cc1ccc(C2Nc3ccc4ccccc4c3C3=C2C(=O)CC(C)(C)C3)cc1` (centres unmarked) [ALT-306, 2,2-dimethyl-5-(p-tolyl)-2,3,5,6-tetrahydrobenzo[a]phenanthridin-4(1H)-one], the entry is “capable of lowering BACE1 expression”.
The same measure for `COc1cc(C2Nc3ccc4ccccc4c3C3=C2C(=O)CC(C)(C)C3)ccc1OCC(=O)O` (centres unmarked) [ALT-413, 2-(4-(2,2-dimethyl-4-oxo-1,2,3,4,5,6-hexahydrobenzo[a]phenanthridin-5-yl)-2-methoxyphenoxy)acetic acid]: “capable of lowering BACE1 expression”; for `COc1cc(C2Nc3ccc4ccccc4c3C3=C2C(=O)CC(C)(C)C3)cc2c1OCO2` (centres unmarked) [ALT-211, 5-(7-methoxybenzo[d][1,3]dioxol-5-yl)-2,2-dimethyl-2,3,5,6-tetrahydrobenzo[a]phenanthridin-4(1H)-one]: “capable of lowering BACE1 expression”.
With `Cn1ccnc1Sc1ccc(C2Nc3ccc4ccccc4c3C3=C2C(=O)CC(C)(C)C3)cc1[N+](=O)[O-]` (centres unmarked) [ALT-324, 2,2-dimethyl-5-(4-((1-methyl-1H-imidazol-2-yl)thio)-3-nitrophenyl)-2,3,5,6-tetrahydrobenzo[a]phenanthridin-4(1H)-one], the BACE1 protein expression result is on record as “capable of lowering BACE1 expression”.
The same measure for `CC1(C)CC(=O)C2=C(C1)c1c(ccc3ccccc13)NC2c1cccc(OCc2cc3c(cc2Cl)OCO3)c1` (centres unmarked) [ALT-210, 5-(3-((6-chlorobenzo[d][1,3]dioxol-5-yl)methoxy)phenyl)-2,2-dimethyl-2,3,5,6-tetrahydrobenzo[a]phenanthridin-4(1H)-one]: “capable of lowering BACE1 expression”.
Regarding `CCN(CC)c1ccc(C2Nc3ccc4ccccc4c3C3=C2C(=O)CC(C)(C)C3)cc1` (centres unmarked) [ALT-318, 5-(4-(diethylamino)phenyl)-2,2-dimethyl-2,3,5,6-tetrahydrobenzo[a]phenanthridin-4(1H)-one], the BACE1 protein expression entry was “capable of lowering BACE1 expression”.
The same measure for `CSc1ccc(C2Nc3ccc4ccccc4c3C3=C2C(=O)CC(C)(C)C3)cc1` (centres unmarked) [ALT-311, 2,2-dimethyl-5-(4-(methylthio)phenyl)-2,3,5,6-tetrahydrobenzo[a]phenanthridin-4(1H)-one]: “capable of lowering BACE1 expression”.
The same measure for `CCCC(=O)Oc1ccc(C2Nc3ccc4ccccc4c3C3=C2C(=O)CCC3)cc1OC` (centres unmarked) [ALT-408, 2-methoxy-4-(4-oxo-1,2,3,4,5,6-hexahydrobenzo[a]phenanthridin-5-yl)phenyl butyrate]: “capable of lowering BACE1 expression”; for `O=C1CCCC2=C1C(c1ccc(O)c(O)c1)Nc1c2ccc2ccccc12` (centres unmarked) [ALT-317, 6-(3,4-dihydroxyphenyl)-6,8,9,10-tetrahydrobenzo[c]phenanthridin-7(5H)-one]: “capable of lowering BACE1 expression”; for `CCOC(=O)COc1c(Cl)cc(C2Nc3ccc4ccccc4c3C3=C2C(=O)CCC3)cc1OC` (centres unmarked) [ALT-406, ethyl 2-(2-chloro-6-methoxy-4-(4-oxo-1,2,3,4,5,6-hexahydrobenzo[a]phenanthridin-5-yl)phenoxy)acetate]: “capable of lowering BACE1 expression”.

The values are drawn from patent US20230095021A1, “MODULATORS OF TDP-43” (Alteron Therapeutics, Inc., priority 2019, published 2023).
